Assays:
Details in all cases: 72 h
Calu-3 [1] = test: drug sensitivity score (DSS) for viability; higher = more toxic; extreme values may be limits of the assay
Caco-2 [2] = test: as above
Vero E6 [3] = test: as above
HepG2 [4] = test: as above
U2OS [5] = test: as above
Calu-3 [6] = test: relative viability EC50 (midpoint between 100% and the lowest measured viability); higher = less toxic
Caco-2 [7] = test: as above
Vero E6 [8] = test: as above
HepG2 [9] = test: as above
U2OS [10] = test: as above
Calu-3 [11] = test: cell viability relative to DMSO; higher = less toxic
Caco-2 [12] = test: as above
Vero E6 [13] = test: as above
HepG2 [14] = test: as above
U2OS [15] = test: as above

| Compound | drug sensitivity score (Calu-3 [1]) | drug sensitivity score (Caco-2 [2]) | drug sensitivity score (Vero E6 [3]) | drug sensitivity score (HepG2 [4]) | drug sensitivity score (U2OS [5]) | relative viability EC50 (Calu-3 [6]) [µM] | relative viability EC50 (Caco-2 [7]) [µM] | relative viability EC50 (Vero E6 [8]) [µM] | relative viability EC50 (HepG2 [9]) [µM] | relative viability EC50 (U2OS [10]) [µM] | cell viability (Calu-3 [11]; 1 nM) [%] | cell viability (Calu-3 [11]; 10 nM) [%] | cell viability (Calu-3 [11]; 100 nM) [%] | cell viability (Calu-3 [11]; 1000 nM) [%] | cell viability (Calu-3 [11]; 10000 nM) [%] | cell viability (Caco-2 [12]; 1 nM) [%] | cell viability (Caco-2 [12]; 10 nM) [%] | cell viability (Caco-2 [12]; 100 nM) [%] | cell viability (Caco-2 [12]; 1000 nM) [%] | cell viability (Caco-2 [12]; 10000 nM) [%] | cell viability (Vero E6 [13]; 1 nM) [%] | cell viability (Vero E6 [13]; 10 nM) [%] | cell viability (Vero E6 [13]; 100 nM) [%] | cell viability (Vero E6 [13]; 1000 nM) [%] | cell viability (Vero E6 [13]; 10000 nM) [%] | cell viability (HepG2 [14]; 1 nM) [%] | cell viability (HepG2 [14]; 10 nM) [%] | cell viability (HepG2 [14]; 100 nM) [%] | cell viability (HepG2 [14]; 1000 nM) [%] | cell viability (HepG2 [14]; 10000 nM) [%] | cell viability (U2OS [15]; 1 nM) [%] | cell viability (U2OS [15]; 10 nM) [%] | cell viability (U2OS [15]; 100 nM) [%] | cell viability (U2OS [15]; 1000 nM) [%] | cell viability (U2OS [15]; 10000 nM) [%] |
| --- | --- | --- | --- | --- | --- | --- | --- | --- | --- | --- | --- | --- | --- | --- | --- | --- | --- | --- | --- | --- | --- | --- | --- | --- | --- | --- | --- | --- | --- | --- | --- | --- | --- | --- | --- |
| Clc1cccc2c1CN(C1=NCCN1)C2 | 0 | 0 | 0 | 0 | 0 | > 10 | > 10 | > 10 | > 10 | > 10 | 97.1 | 90.1 | 109 | 101 | 98.3 | 100 | 100 | 95.6 | 98.8 | 97.3 | 98.9 | 98.7 | 104 | 98.5 | 99.2 | 96.7 | 101 | 91.8 | 92.5 | 97.3 | 101 | 101 | 97.3 | 102 | 92.1 |
| CCCCc1ccc(C(N)=O)nc1 [bupicomide] | 0 | 0 | 0 | 0 | 0 | > 10 | > 10 | > 10 | > 10 | > 10 | 97.9 | 84.9 | 103 | 84.7 | 99.3 | 94.6 | 81.3 | 94 | 90.8 | 88 | 96.6 | 99.9 | 96 | 100 | 107 | 93.8 | 103 | 92.6 | 116 | 114 | 99.9 | 94.5 | 103 | 93.6 | 102 |
| COCCCC/C(=N\OCCN)c1ccc(C(F)(F)F)cc1 [fluvoxamine] | 0 | 4 | 0 | 0 | 0 | > 10 | > 10 | > 10 | > 10 | > 10 | 102 | 109 | 95.6 | 96.5 | 93.7 | 124 | 109 | 84.3 | 80.6 | 94.1 | 91.6 | 103 | 98.1 | 101 | 88 | 99.3 | 93.5 | 100 | 105 | 100 | 104 | 97.3 | 98 | 96.4 | 98.5 |
| O=C(O)Cc1ccc(CCNS(=O)(=O)c2ccc(Cl)cc2)cc1 [daltroban] | 0 | 0 | 0 | 0 | 0 | > 10 | > 10 | > 10 | > 10 | > 10 | 101 | 95.3 | 102 | 116 | 105 | 104 | 104 | 94.2 | 94.1 | 94.7 | 109 | 98.4 | 109 | 107 | 89.5 | 95 | 90.9 | 99.8 | 104 | 95.7 | 102 | 95.3 | 99.2 | 96.1 | 99.9 |
| Clc1cccc(Cl)c1CSc1nnc(-c2cnccn2)s1 [yoda-1] | 0 | 0.9 | 0 | 0 | 0 | > 10 | > 10 | > 10 | > 10 | > 10 | 98.8 | 91.1 | 97 | 98.8 | 91 | 100 | 95.3 | 94.7 | 92.6 | 79.6 | 97.4 | 100 | 94.2 | 96 | 94 | 84.7 | 100 | 97.6 | 102 | 91 | 101 | 98.9 | 90.6 | 92 | 93 |
| CCOC(=O)Nc1nc2ccccc2[nH]1 [lobendazole] | 0 | 0 | 0 | 0 | 0 | > 10 | > 10 | > 10 | > 10 | > 10 | 100 | 106 | 102 | 98.4 | 95.9 | 97.9 | 91.6 | 96.4 | 109 | 95.5 | 96.9 | 101 | 87.6 | 103 | 103 | 94.6 | 113 | 104 | 111 | 98.9 | 97.1 | 96.1 | 98.2 | 94.8 | 99.7 |
| CCOc1nc2cccc(C(=O)O)c2n1Cc1ccc(-c2ccccc2-c2nnn[nH]2)cc1 [candesartan] | 0 | 0 | 0 | 0 | 0 | > 10 | > 10 | > 10 | > 10 | > 10 | 91.1 | 95.7 | 100 | 99.7 | 105 | 104 | 97.5 | 106 | 90.1 | 92.5 | 102 | 97.6 | 95.3 | 92.7 | 108 | 103 | 100 | 106 | 98 | 94.5 | 94.2 | 96.8 | 94.4 | 99.3 | 102 |
| C#CCN1C(C)=C(C(=O)OC)C(c2cccc([N+](=O)[O-])c2)C(C(=O)OCC)=C1C (stereo not given) [MRS-1845] | 0 | 0.3 | 0 | 0 | 0 | > 10 | > 10 | > 10 | > 10 | > 10 | 99.5 | 91.3 | 95.6 | 98.3 | 90.6 | 92 | 98.1 | 96.9 | 88.6 | 85.4 | 94.1 | 99.6 | 98 | 99.3 | 99 | 95.2 | 105 | 91.3 | 106 | 95.7 | 107 | 97.8 | 105 | 100 | 97.2 |

— the supplement of paper PMC13380429
